From ChEMBL document CHEMBL4371080, “Multiple weak intercalation as a strategy for the inhibition of polymerases” (Bioorg Med Chem Lett, 2019)
Where a SMILES comes first, the peptide text is derived from it. Bridges are numbered along the chain shown (N, C = ends). [ ]: non-standard residue; d: D form. The star is where a group is joined. ξ: configuration not given here. Quinoxaline2carbonyl = O=C(c1cnc2ccccc2n1)*; ξDap = NCC(N)C(=O)O

target: Human immunodeficiency virus type 1 reverse transcriptase (Human immunodeficiency virus 1) (UniProt Q72547); assay: Inhibition of HIV1 reverse transcriptase assessed as reduction in [3H]dTTP incorporation by measuring proportional residual activity ratio at 300 uM using poly(rA)/oligo(dT) as template/primer after 30 mins by scintillation counting method

SMILES | Ratio
NC(=O)[C@H](Cc1c[nH]c2ccccc12)NC(=O)CNC(=O)[C@@H](N)Cc1c[nH]c2ccccc12 | 0.4
NC(=O)[C@@H](Cc1c[nH]c2ccccc12)NC(=O)CCCNC(=O)[C@H](N)Cc1c[nH]c2ccccc12 | 0.36
NC(=O)[C@H](Cc1c[nH]c2ccccc12)NC(=O)CNC(=O)[C@H](N)Cc1c[nH]c2ccccc12 | 0.63
NC(=O)[C@H](Cc1c[nH]c2ccccc12)NC(=O)CCCNC(=O)[C@H](N)Cc1c[nH]c2ccccc12 | 0.43
NC(=O)[C@@H](Cc1c[nH]c2ccccc12)NC(=O)CCNC(=O)[C@@H](N)Cc1c[nH]c2ccccc12 | 0.46
NC(=O)[C@@H](Cc1c[nH]c2ccccc12)NC(=O)CNC(=O)[C@@H](N)Cc1c[nH]c2ccccc12 | 0.74

Further lines, results first:

Ratio | SMILES
0.69 | NC(=O)C[C@H](NC(=O)[C@H](N)Cc1c[nH]c2ccccc12)C(=O)N[C@@H](Cc1c[nH]c2ccccc12)C(N)=O
0.69 | NC(=O)C[C@H](NC(=O)[C@H](N)Cc1c[nH]c2ccccc12)C(=O)N[C@H](Cc1c[nH]c2ccccc12)C(N)=O
0.44 | NC(=O)C[C@H](NC(=O)[C@@H](N)Cc1c[nH]c2ccccc12)C(=O)N[C@H](Cc1c[nH]c2ccccc12)C(N)=O
0.34 | NC(=O)C[C@@H](NC(=O)[C@H](N)Cc1c[nH]c2ccccc12)C(=O)N[C@@H](Cc1c[nH]c2ccccc12)C(N)=O
0.61 | NC(=O)[C@H](Cc1c[nH]c2ccccc12)NC(=O)[C@H](N)Cc1c[nH]c2ccccc12
0.7 | NC(=O)[C@@H](Cc1c[nH]c2ccccc12)NC(=O)[C@H](N)Cc1c[nH]c2ccccc12
0.62 | NC(=O)C[C@H](NC(=O)[C@@H](N)Cc1c[nH]c2ccccc12)C(=O)N[C@@H](Cc1c[nH]c2ccccc12)C(N)=O
0.6 | NC(=O)C[C@@H](NC(=O)[C@@H](N)Cc1c[nH]c2ccccc12)C(=O)N[C@@H](Cc1c[nH]c2ccccc12)C(N)=O
0.47 | NC(=O)C[C@@H](NC(=O)[C@H](N)Cc1c[nH]c2ccccc12)C(=O)N[C@H](Cc1c[nH]c2ccccc12)C(N)=O
0.65 | NC(=O)[C@H](Cc1c[nH]c2ccccc12)NC(=O)[C@@H](N)Cc1c[nH]c2ccccc12
0.45 | NC(=O)[C@@H](Cc1c[nH]c2ccccc12)NC(=O)[C@@H](N)Cc1c[nH]c2ccccc12
0.76 | NC(=O)[C@@H](Cc1c[nH]c2ccccc12)NC(=O)CNC(=O)[C@H](N)Cc1c[nH]c2ccccc12
0.35 | NC(=O)C[C@@H](NC(=O)[C@@H](N)Cc1c[nH]c2ccccc12)C(=O)N[C@H](Cc1c[nH]c2ccccc12)C(N)=O

target: Human immunodeficiency virus type 1 reverse transcriptase (Human immunodeficiency virus 1) (UniProt Q72547); assay: Inhibition of HIV1 reverse transcriptase assessed as reduction in [3H]dTTP incorporation by measuring proportional residual activity ratio at 20 uM using poly(rA)/oligo(dT) as template/primer after 30 mins by scintillation counting method relative to control

Ratio | SMILES
0.38 | NCC1NC(=O)C[C@@H](C(N)=O)NC(=O)CNC(=O)CNC(=O)C(CNC(=O)c2cnc3ccccc3n2)NC(=O)C(CNC(=O)c2cnc3ccccc3n2)NC(=O)CNC1=O (some centres not stated) ([ξDap]G[ξDap](Quinoxaline2carbonyl)[ξDap](Quinoxaline2carbonyl)GGD-NH2; lactam N-7)
0.11 | NCC1NC(=O)C[C@@H](C(N)=O)NC(=O)CNC(=O)CNC(=O)C(CNC(=O)c2cnc3ccccc3n2)NC(=O)CNC(=O)C(CNC(=O)c2cnc3ccccc3n2)NC1=O (some centres not stated) ([ξDap][ξDap](Quinoxaline2carbonyl)G[ξDap](Quinoxaline2carbonyl)GGD-NH2; lactam N-7)
0.18 | NCC1NC(=O)C[C@@H](C(N)=O)NC(=O)C(CNC(=O)c2cnc3ccccc3n2)NC(=O)CNC(=O)C(CNC(=O)c2cnc3ccccc3n2)NC(=O)CNC(=O)C(CNC(=O)c2cnc3ccccc3n2)NC1=O (stereo partly drawn) ([ξDap][ξDap](Quinoxaline2carbonyl)G[ξDap](Quinoxaline2carbonyl)G[ξDap](Quinoxaline2carbonyl)D-NH2; lactam N-7)
0.13 | NCC1NC(=O)C[C@@H](C(N)=O)NC(=O)C(CNC(=O)c2cnc3ccccc3n2)NC(=O)C(CNC(=O)c2cnc3ccccc3n2)NC(=O)CNC(=O)CNC(=O)C(CNC(=O)c2cnc3ccccc3n2)NC1=O (stereo partly drawn) ([ξDap][ξDap](Quinoxaline2carbonyl)GG[ξDap](Quinoxaline2carbonyl)[ξDap](Quinoxaline2carbonyl)D-NH2; lactam N-7)
0.18 | NCC1NC(=O)C[C@@H](C(N)=O)NC(=O)C(CNC(=O)c2cnc3ccccc3n2)NC(=O)CNC(=O)C(CNC(=O)c2cnc3ccccc3n2)NC(=O)CNC(=O)CNC1=O (stereo partly drawn) ([ξDap]GG[ξDap](Quinoxaline2carbonyl)G[ξDap](Quinoxaline2carbonyl)D-NH2; lactam N-7)
0.03 | NCC1NC(=O)C[C@@H](C(N)=O)NC(=O)CNC(=O)C(CNC(=O)c2cnc3ccccc3n2)NC(=O)CNC(=O)C(CNC(=O)c2cnc3ccccc3n2)NC(=O)C(CNC(=O)c2cnc3ccccc3n2)NC1=O (some centres not stated) ([ξDap][ξDap](Quinoxaline2carbonyl)[ξDap](Quinoxaline2carbonyl)G[ξDap](Quinoxaline2carbonyl)GD-NH2; lactam N-7)
0.57 | NCC1NC(=O)C[C@@H](C(N)=O)NC(=O)CNC(=O)C(CNC(=O)c2cnc3ccccc3n2)NC(=O)C(CNC(=O)c2cnc3ccccc3n2)NC(=O)CNC(=O)CNC1=O (some centres not stated) ([ξDap]GG[ξDap](Quinoxaline2carbonyl)[ξDap](Quinoxaline2carbonyl)GD-NH2; lactam N-7)
0.02 | NCC1NC(=O)C[C@@H](C(N)=O)NC(=O)CNC(=O)C(CNC(=O)c2cnc3ccccc3n2)NC(=O)CNC(=O)CNC(=O)C(CNC(=O)c2cnc3ccccc3n2)NC1=O (some centres not stated) ([ξDap][ξDap](Quinoxaline2carbonyl)GG[ξDap](Quinoxaline2carbonyl)GD-NH2; lactam N-7)
0.08 | NCC1NC(=O)C[C@@H](C(N)=O)NC(=O)CNC(=O)C(CNC(=O)c2cnc3ccccc3n2)NC(=O)C(CNC(=O)c2cnc3ccccc3n2)NC(=O)C(CNC(=O)c2cnc3ccccc3n2)NC(=O)CNC1=O (some centres not stated) ([ξDap]G[ξDap](Quinoxaline2carbonyl)[ξDap](Quinoxaline2carbonyl)[ξDap](Quinoxaline2carbonyl)GD-NH2; lactam N-7)
0.06 | NCC1NC(=O)C[C@@H](C(N)=O)NC(=O)C(CNC(=O)c2cnc3ccccc3n2)NC(=O)CNC(=O)CNC(=O)C(CNC(=O)c2cnc3ccccc3n2)NC(=O)C(CNC(=O)c2cnc3ccccc3n2)NC1=O (stereo partly drawn) ([ξDap][ξDap](Quinoxaline2carbonyl)[ξDap](Quinoxaline2carbonyl)GG[ξDap](Quinoxaline2carbonyl)D-NH2; lactam N-7)
0.09 | NCC1NC(=O)C[C@@H](C(N)=O)NC(=O)CNC(=O)C(CNC(=O)c2cnc3ccccc3n2)NC(=O)CNC(=O)C(CNC(=O)c2cnc3ccccc3n2)NC(=O)CNC1=O (some centres not stated) ([ξDap]G[ξDap](Quinoxaline2carbonyl)G[ξDap](Quinoxaline2carbonyl)GD-NH2; lactam N-7)
0.14 | NCC1NC(=O)C[C@@H](C(N)=O)NC(=O)C(CNC(=O)c2cnc3ccccc3n2)NC(=O)CNC(=O)C(CNC(=O)c2cnc3ccccc3n2)NC(=O)C(CNC(=O)c2cnc3ccccc3n2)NC(=O)CNC1=O (stereo partly drawn) ([ξDap]G[ξDap](Quinoxaline2carbonyl)[ξDap](Quinoxaline2carbonyl)G[ξDap](Quinoxaline2carbonyl)D-NH2; lactam N-7)
0.3 | NCC1NC(=O)C[C@@H](C(N)=O)NC(=O)CNC(=O)CNC(=O)CNC(=O)C(CNC(=O)c2cnc3ccccc3n2)NC(=O)C(CNC(=O)c2cnc3ccccc3n2)NC1=O (some centres not stated) ([ξDap][ξDap](Quinoxaline2carbonyl)[ξDap](Quinoxaline2carbonyl)GGGD-NH2; lactam N-7)
0.71 | NCC1NC(=O)C[C@@H](C(N)=O)NC(=O)C(CNC(=O)c2cnc3ccccc3n2)NC(=O)C(CNC(=O)c2cnc3ccccc3n2)NC(=O)CNC(=O)CNC(=O)CNC1=O (stereo partly drawn) ([ξDap]GGG[ξDap](Quinoxaline2carbonyl)[ξDap](Quinoxaline2carbonyl)D-NH2; lactam N-7)
0.66 | NCC1NC(=O)C[C@@H](C(N)=O)NC(=O)CNC(=O)CNC(=O)C(CNC(=O)c2cnc3ccccc3n2)NC(=O)CNC(=O)CNC1=O (some centres not stated) ([ξDap]GG[ξDap](Quinoxaline2carbonyl)GGD-NH2; lactam N-7)
0.15 | NCC1NC(=O)C[C@@H](C(N)=O)NC(=O)C(CNC(=O)c2cnc3ccccc3n2)NC(=O)C(CNC(=O)c2cnc3ccccc3n2)NC(=O)CNC(=O)C(CNC(=O)c2cnc3ccccc3n2)NC(=O)CNC1=O (stereo partly drawn) ([ξDap]G[ξDap](Quinoxaline2carbonyl)G[ξDap](Quinoxaline2carbonyl)[ξDap](Quinoxaline2carbonyl)D-NH2; lactam N-7)
0.13 | NCC1NC(=O)C[C@@H](C(N)=O)NC(=O)C(CNC(=O)c2cnc3ccccc3n2)NC(=O)CNC(=O)CNC(=O)C(CNC(=O)c2cnc3ccccc3n2)NC(=O)CNC1=O (stereo partly drawn) ([ξDap]G[ξDap](Quinoxaline2carbonyl)GG[ξDap](Quinoxaline2carbonyl)D-NH2; lactam N-7)
0.04 | NCC1NC(=O)C[C@@H](C(N)=O)NC(=O)CNC(=O)CNC(=O)C(CNC(=O)c2cnc3ccccc3n2)NC(=O)C(CNC(=O)c2cnc3ccccc3n2)NC(=O)C(CNC(=O)c2cnc3ccccc3n2)NC1=O (some centres not stated) ([ξDap][ξDap](Quinoxaline2carbonyl)[ξDap](Quinoxaline2carbonyl)[ξDap](Quinoxaline2carbonyl)GGD-NH2; lactam N-7)
0.16 | NCC1NC(=O)C[C@@H](C(N)=O)NC(=O)C(CNC(=O)c2cnc3ccccc3n2)NC(=O)C(CNC(=O)c2cnc3ccccc3n2)NC(=O)C(CNC(=O)c2cnc3ccccc3n2)NC(=O)CNC(=O)CNC1=O (stereo partly drawn) ([ξDap]GG[ξDap](Quinoxaline2carbonyl)[ξDap](Quinoxaline2carbonyl)[ξDap](Quinoxaline2carbonyl)D-NH2; lactam N-7)
0.09 | NCC1NC(=O)C[C@@H](C(N)=O)NC(=O)CNC(=O)C(CNC(=O)c2cnc3ccccc3n2)NC(=O)C(CNC(=O)c2cnc3ccccc3n2)NC(=O)CNC(=O)C(CNC(=O)c2cnc3ccccc3n2)NC1=O (some centres not stated) ([ξDap][ξDap](Quinoxaline2carbonyl)G[ξDap](Quinoxaline2carbonyl)[ξDap](Quinoxaline2carbonyl)GD-NH2; lactam N-7)

target: Human immunodeficiency virus type 1 reverse transcriptase (Human immunodeficiency virus 1, UniProt Q72547); assay: Inhibition of HIV1 reverse transcriptase assessed as reduction in [3H]dTTP incorporation using poly(rA)/oligo(dT) as template/primer after 30 mins by scintillation counting method

SMILES | IC50 [µM]
O=C(O)c1cnc2ccccc2c1 | 2400
O=C(O)c1ccnc2ccccc12 | 9600
COc1cc(NC(C)CCCN)c2ncccc2c1 (configuration not stated) [PRIMAQUINE PHOSPHATE] | 100
